Laboratory results from patent US10945951B2, “Apparatus for compound dispersion” (Biogen MA Inc., priority 2014, dated 2021).

Assays:
[1] = Live imaging of intrathecally injected Gd-DTPA in dog; format: in vivo
Procedure: For this experiment, an adult male two-year-old beagle was intrathecally injected at the L4-L5 space and live imaging was performed under anesthesia for five hours.
FIGS. 15C-15G show the signal counts corresponding to the presence of Gd-DTPA over the five hour monitoring period. The various monitored locations included the hippocampus, spinal column, substantia nigra, cortex, and striatum.

[2] = SPECT imaging of two probes injected in a single bolus into lumbar cistern and cisterna magna; format: in vivo, rat; settings: single 20 ml bolus, lumbar cistern and cisterna magna injection
Procedure: Two different probes including different isotopes were injected via a single […] bolus into rodents and then imaged at different energies. […] FIG. 8B depicts a structure of the second mitochondria targeting probe ^99mTc-Sestamibi. The bolus was injected into the lumbar cistern and the cisterna magna to help distinguish uptake into interstitial spaces versus uptake into intracellular compartments, see FIG. 8C. […] Consequently, it is apparent that the cell affinity of a compound for the structures and tissue within the CNS should be considered when determining the optimal parameters, such as injection site, bolus volume, and the applied forces, needed to ensure a compound reaches a desired target site.

[3] = 20 μl bolus, intrathecal
Procedure: The same amount of each probe was used in each injected bolus. However, the total bolus volumes for the separate injections were 20 μl and 30 μl followed by a 40 μl saline flush. The boluses were injected intrathecally into rodents and the concentration of the two probes was monitored at the lumbar, thoracic, and cervical regions.

[4] = PET imaging of distribution of lumbar intrathecally injected 64Cu-DOTA, bolus volume and respiratory vest force; format: in vivo, Cynomolgus monkeys; settings: lumbar intrathecal
Procedure: The ability of a time varying force applied to the torso of a patient and increased bolus volumes to enhance CNS exposure of intrathecally injected compounds was tested in cynomolgus monkeys. Specifically, live whole animal positron emission tomography (PET) imaging was used to monitor the distribution of intrathecally injected ^64Cu-DOTA given as a compound surrogate. This approach allowed the direct imaging of the impact of the convective force on compound spread in CSF and the exposure of the primate CNS to the compound. During the experiments, Cynomolgus monkeys were given a lumbar intrathecal injection of ^64Cu-DOTA in a volume of either 0.36 ml (about 3% of the total CSF volume) or 1.86 ml (about 15% of the total CSF volume), see FIG. 6. The 3% total CSF volume was chosen to mimic a typical lumbar intrathecal injection volume of about 5 ml that is used clinically. Following lumbar intrathecal injection, the animals were placed in a respiratory vest for 20 minutes. The vest was turned on for 20 minutes only for those animals in which the effect of the time varying force enhanced convection was tested. Animals wearing the vest without activating the time varying force feature served as controls. Animals were then imaged with PET scanning for a time window of 30-60 min post dosing.

Compound: O=C([O-])CN(CCN(CC(=O)[O-])CC(=O)O)CCN(CC(=O)[O-])CC(=O)O.[Gd+3] [Gd-DTPA]
- signal intensity over time in hippocampus, spinal column, substantia nigra, cortex and striatum ([1]; intrathecal injection at L4-L5, five hour monitoring period): increase in the measured signal intensity over time
- location in the brain (cellular uptake vs interstitial spaces) ([1]; intrathecal injection at L4-L5, live imaging five hours): not taken up into the cells but instead was located in the interstitial spaces of the brain

Compound: [C-]#[N+]CC(C)(C)OC.[C-]#[N+]CC(C)(C)OC.[C-]#[N+]CC(C)(C)OC.[C-]#[N+]CC(C)(C)OC.[C-]#[N+]CC(C)(C)OC.[C-]#[N+]CC(C)(C)OC.[Tc] [^99mTc-Sestamibi]
- distribution along the CNS [2]: showed very little distribution along the CNS
- concentration in the lumbar region at injection [3]: initially high concentration
- concentration over time in the thoracic and cervical regions [3]: did not increase

Compound: ^111In-DTPA
- distribution along the CNS [2]: showed distribution from the injection site towards the head of the rodent along the CNS

Compound: O=C([O-])CN1CCN(CC(=O)O)CCN(CC(=O)[O-])CCN(CC(=O)O)CC1.[64Cu+2] [^64Cu-DOTA]
- CNS exposure / compound spread in CSF ([4]; 3% CSF volume (0.36 ml), respiratory vest turned on 20 minutes, PET 30-60 min post dosing): the entire spinal cord, and brainstem displayed exposure
- CNS exposure / compound spread in CSF ([4]; 3% CSF volume (0.36 ml), vest not turned on, PET 30-60 min post dosing): only reached the lower thoracic spinal cord
- CNS exposure / compound spread in CSF ([4]; 15% CSF volume (1.86 ml), combined with time varying forces of the vest): greatest rostral spread
- CNS exposure / compound spread in CSF ([4]; 15% CSF volume (1.86 ml), vest not activated, PET 30-60 min post dosing): exposure over the entire spinal cord and portions of the brainstem
